Measured values from publication PMC9873282, “Design, synthesis and evaluation of quinoline-O-carbamate derivatives as multifunctional agents for the treatment of Alzheimer’s disease” (Journal of Enzyme Inhibition and Medicinal Chemistry, 2023).
Several values for one entry are separate records, joined by “and”; a condition that tells them apart may be missing. Identical values can stand only once. Like-named read-outs stand apart in the source and are kept apart here.

How the values were obtained:
hBuChE [1] = target: T1, hBuChE (Homo sapiens, UniProt P06276); test: hBuChE reversibility of inhibition (recovery after dilution); format: biochemical
T1 construct: hBuChE, human serum BuChE; purchased Sigma Aldrich; host or cells: human serum (natural source)
T1 sequence (P06276 29-602): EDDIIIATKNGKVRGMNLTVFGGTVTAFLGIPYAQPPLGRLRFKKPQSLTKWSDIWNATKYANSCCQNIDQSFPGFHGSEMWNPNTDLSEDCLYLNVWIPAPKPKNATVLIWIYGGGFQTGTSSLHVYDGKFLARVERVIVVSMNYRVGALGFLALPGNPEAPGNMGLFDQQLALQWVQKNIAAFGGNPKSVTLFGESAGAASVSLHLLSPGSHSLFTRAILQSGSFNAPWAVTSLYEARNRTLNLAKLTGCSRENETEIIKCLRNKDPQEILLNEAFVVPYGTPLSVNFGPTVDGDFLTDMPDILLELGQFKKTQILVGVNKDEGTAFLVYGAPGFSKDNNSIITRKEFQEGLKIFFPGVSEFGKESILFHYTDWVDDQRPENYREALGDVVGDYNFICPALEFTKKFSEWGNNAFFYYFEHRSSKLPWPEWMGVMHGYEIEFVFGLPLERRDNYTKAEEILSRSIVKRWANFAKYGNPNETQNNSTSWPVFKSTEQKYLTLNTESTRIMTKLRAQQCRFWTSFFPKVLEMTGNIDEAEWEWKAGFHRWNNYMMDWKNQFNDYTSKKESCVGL

eeAChE = target: T2, eeAChE (Electrophorus electricus, UniProt O42275); test: biochemical; set-up: species or system electric eel
T2 construct: eeAChE, from the electric eel; purchased Sigma Aldrich; host or cells: electric eel (natural source)
T2 sequence (O42275 24-633): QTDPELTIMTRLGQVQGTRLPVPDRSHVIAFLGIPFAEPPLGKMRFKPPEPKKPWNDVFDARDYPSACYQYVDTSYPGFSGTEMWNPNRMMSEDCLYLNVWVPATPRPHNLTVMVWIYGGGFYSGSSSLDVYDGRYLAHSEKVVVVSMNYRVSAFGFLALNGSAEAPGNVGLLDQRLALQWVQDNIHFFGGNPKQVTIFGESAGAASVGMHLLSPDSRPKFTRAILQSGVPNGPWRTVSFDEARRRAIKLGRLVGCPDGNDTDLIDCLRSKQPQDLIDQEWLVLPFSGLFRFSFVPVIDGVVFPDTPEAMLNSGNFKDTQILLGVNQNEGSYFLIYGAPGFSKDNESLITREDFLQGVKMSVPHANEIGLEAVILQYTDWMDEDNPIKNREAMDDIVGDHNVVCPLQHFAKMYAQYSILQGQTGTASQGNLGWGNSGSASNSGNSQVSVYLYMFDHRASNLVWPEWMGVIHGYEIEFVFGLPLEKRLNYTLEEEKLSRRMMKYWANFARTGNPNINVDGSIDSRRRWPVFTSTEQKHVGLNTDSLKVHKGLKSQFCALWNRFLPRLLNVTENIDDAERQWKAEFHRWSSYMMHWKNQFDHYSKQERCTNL
Description: (§1) The inhibitory activities of the synthesised compounds against eeAChE (from electric eel) and eqBuChE (from equine serum) were tested by the modified Ellman’s method[26]^,[27]. […] The determination of AChE and BuChE inhibitory potency of the synthesised compounds were evaluated by Ellman assay, the detailed procedure referred to our previous work[26]^,[27].

eqBuChE = target: T3, eqBuChE (Equus caballus, UniProt P81908); test: biochemical; set-up: species or system equine; details: for inhibition at 25 µM: read-out: eqBuChE inhibition rate; for IC50: BuChE from equine serum, read-out: IC50 ± SD eqBuChE; for SI = IC50 (AChE)/IC50 (BuChE): eeAChE/eqBuChE
T3 construct: eqBuChE, from equine serum; purchased Sigma Aldrich; host or cells: equine serum (natural source)
T3 sequence (P81908 whole entry): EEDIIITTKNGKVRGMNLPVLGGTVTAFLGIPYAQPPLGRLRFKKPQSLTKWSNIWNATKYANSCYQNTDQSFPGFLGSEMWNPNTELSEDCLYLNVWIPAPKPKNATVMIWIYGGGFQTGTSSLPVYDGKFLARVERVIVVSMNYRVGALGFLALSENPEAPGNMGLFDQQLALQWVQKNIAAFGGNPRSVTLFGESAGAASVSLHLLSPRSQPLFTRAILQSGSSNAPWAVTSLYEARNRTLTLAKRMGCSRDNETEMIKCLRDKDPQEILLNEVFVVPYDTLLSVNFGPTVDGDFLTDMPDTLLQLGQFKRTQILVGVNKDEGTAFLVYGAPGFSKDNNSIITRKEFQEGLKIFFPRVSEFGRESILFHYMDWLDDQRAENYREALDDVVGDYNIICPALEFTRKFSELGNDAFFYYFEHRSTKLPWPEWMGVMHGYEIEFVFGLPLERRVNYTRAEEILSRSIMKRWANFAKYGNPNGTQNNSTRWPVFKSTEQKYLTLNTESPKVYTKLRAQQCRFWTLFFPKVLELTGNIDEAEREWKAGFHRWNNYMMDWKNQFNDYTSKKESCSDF
Description: as §1

BV-2 cells = test: Cytotoxicity on BV-2 cells (CCK8 assay); format: cell-based; details: compounds at 2 µM
Description: (§2) Firstly, the cytotoxicity of compounds 3a, 3c, 3e, 3f, 3k, 3m and 3n were tested using CCK8 assay.
BV-2 cells were cultured in DMEM containing 10% foetal bovine serum, 100 U/mL penicillin, 100 U/mL streptomycin, and 1% nonessential amino acid at 37 °C with 5% CO2.
BV-2 cells in logarithmic growth stage were digested and centrifuged, and then resuspended in DMEM medium containing 1% penicillin-streptomycin and 10% foetal bovine serum. The cells was adjusted to 1.2 × 10^4 cells/well, and then seeded evenly in 96-well cell culture plates. The cells were incubated for 36 h at 37 °C with 5% CO2. After incubation, the cells were added to different concentrations (10 and 2 µM) of tested compounds, and incubated for 24 h at 37 °C with 5% CO2. Then, 10 µL CCK-8 solution was added to each well, and incubated for another 1 h at 37 °C with 5% CO2. The OD values were tested at […]. The cell viability (%) = {(ODdrug−ODblank)}/{(ODcontrol−ODblank)} × 100%.

IL-6 = IL-6 production in LPS-stimulated BV-2 cells (ELISA); format: cell-based; details: 1 µM and 2 µM; 1 µg/mL LPS 24 h
Description: as §2
(§3) BV-2 cells (2 × 10^5 cells/well) were seeded in a 24-well cell culture plates. The cells were divided into blank control group, model group (1 µg/mL LPS), LPS + 2 µM compound group, LPS + 1 µM compound group. Each drug group was pre-treated with corresponding concentration of drug solution for 8 h. After 8 h, the culture medium was aspirated out. Except for the blank control group, which was added with DMEM medium, the other groups were stimulated with 1 µg/mL LPS for 24 h. Then cell supernatant was aspirated and centrifuged at 3000 rpm for 3 min. The content of NO in cell culture supernatant was determined by Griess method, and the levels of cytokines IL-6 and IL-1β in cell culture supernatant were determined by IL-6 ELISA kit and IL-1β ELISA kit, respectively.

IL-1β = IL-1β production in LPS-stimulated BV-2 cells (ELISA); format: cell-based; details: 1 µg/mL LPS 24 h
Description: as §2, §3

NO = NO release in LPS-stimulated BV-2 cells (Griess method); format: cell-based; details: 1 µg/mL LPS 24 h
Description: as §2, §3

PC12 cells = test: Cytotoxicity on PC12 cells; format: cell-based; details: at concentration below 40 µM
Description: (§4) The neuroprotective effect of compounds 3a, 3c, 3e, 3f, 3k, 3m, and 3n on Aβ25–35-induced PC12 cells injury were evaluated using CCK-8 assay. […] Furthermore, as shown in Figure 12(B), when PC12 cells were exposed to 25 µM Aβ25-35, the cell viability sharply declined to 57.3% (p < 0.01) compared with untreated group.
(§5) The PC12 cells during the logarithmic growth phase were digested and centrifuged with pancreatic enzyme solution, the cells were resuspended by adding the prepared media solution, and piped evenly with a pipette to seed in a 96-well cell culture plate (cell concentration adjusted to 2.0 × 10^4 cell·mL^−1). Each well was added 100 µL complete medium was added to each well and incubated at 37 °C and 5% CO2 for 24 h.

[2] = test system: Aβ25-35-induced PC12 cells injury; test: Neuroprotective effect on Aβ25-35-induced PC12 cells injury (CCK-8); format: cell-based; details: 25 µM Aβ25-35; model cell viability 57.3%
Description: as §4
• Preparation of Aβ25-35 aggregation. Aβ25-35 was purchased from sigma. 1 mg Aβ25-35 was dissolved in 943 µL of sterilised deionised water to obtain 1 mM stock solution, aliquoted, –20 °C preservation. Removing the appropriate volume in a 48-well plate and incubated in a 37 °C incubator for two days to allow its ageing to accumulate and produce neurotoxicity. After aggregation was completed, the solution was diluted with PBS to get 25 µM solution of Aβ25-35 aggregation. • Neuroprotective effects of compounds on Aβ25-35-induced PC12 cells injury
as §5
After incubation for 24 h, PC12 cells were divided into blank group, control group, Aβ25-35 model group and tested compounds group (5, 10, 20 µM). Then the original medium was discarded, and 100 µL new complete medium were added to PC12 cells, and the tested compounds group was added to 100 µL complete medium containing different concentrations (5, 10, and 20 µM) of tested compounds, incubated for 2 h at 37 °C, 5% CO2 conditions. After incubation for 2 h, 10 µL Aβ25-35 solution was added to the tested compounds groups and model group (the final concentration of Aβ25-35 was 25 µM), and incubated for 24 h at 37 °C, 5% CO2 conditions, 10 µL CCK-8 was added to each well and further incubated for 1 h at 37 °C and 5% CO2. Finally, the OD value was measured at 450 nm using a microplate reader, and each concentration set three wells. The cell survival rate (%) was determined according to the following formula: cell viability (%) = {(ODdrug−ODblank)}/{(ODcontrol−ODblank)}.

hAChE = target: T4, hAChE (Homo sapiens, UniProt P22303); test: biochemical; details: from human erythrocytes; read-out: IC50 ± SD hAChE
T4 construct: hAChE, from human erythrocytes AChE; purchased Sigma Aldrich; host or cells: human erythrocytes (natural source)
T4 sequence (P22303 32-617 isoform P22303-2 limits assumed): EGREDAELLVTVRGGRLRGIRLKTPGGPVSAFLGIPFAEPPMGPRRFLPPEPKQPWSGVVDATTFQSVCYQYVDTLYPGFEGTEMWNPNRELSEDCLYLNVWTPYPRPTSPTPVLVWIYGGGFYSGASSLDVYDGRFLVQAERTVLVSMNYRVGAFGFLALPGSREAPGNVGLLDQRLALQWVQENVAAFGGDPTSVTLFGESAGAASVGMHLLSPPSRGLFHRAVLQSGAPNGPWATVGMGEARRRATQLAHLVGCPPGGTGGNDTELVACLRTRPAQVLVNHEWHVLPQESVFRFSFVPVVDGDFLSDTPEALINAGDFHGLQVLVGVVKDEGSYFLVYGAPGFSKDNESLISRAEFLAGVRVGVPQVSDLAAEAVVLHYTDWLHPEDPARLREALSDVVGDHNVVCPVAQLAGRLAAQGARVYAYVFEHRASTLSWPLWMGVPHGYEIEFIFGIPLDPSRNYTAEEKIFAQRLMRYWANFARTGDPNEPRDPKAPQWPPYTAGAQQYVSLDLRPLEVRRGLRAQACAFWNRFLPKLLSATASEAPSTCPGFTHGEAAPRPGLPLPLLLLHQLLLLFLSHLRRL
Description: (§6) Acetylcholinesterase (eeAChE, from the electric eel; hAChE, from human erythrocytes AChE), butyrylcholinesterase (eqBuChE, from equine serum; hBuChE, human serum BuChE), 5,5′-dithiobis-2-nitrobenzoic acid (Ellman’s reagent, DTNB), acetylthiocholine chloride (ATC), and butyrylthiocholine chloride (BTC) were purchased form Sigma Aldrich. The determination of AChE and BuChE inhibitory potency of the synthesised compounds were evaluated by Ellman assay, the detailed procedure referred to our previous work[26]^,[27].

hBuChE [3] = target: T1, hBuChE; test: biochemical
Description: as §6

[4] = AChE from electric eel, read-out: IC50 ± SD eeAChE

For `CCN(C)C(=O)Oc1cccc([C@H](C)N(C)C)c1` [Rivastigmine, reference compound], the “hBuChE activity (% control)” value (hBuChE [1]; 0.1*IC50, diluted) was 46.9 % control, the hBuChE activity restored (hBuChE [1]; 0.1 × IC50, 120 min) was 62.3% and the hBuChE activity restored (hBuChE [1]; 0.1 × IC50, 240 min) was 121.8%. For the same compound, the “hBuChE activity (% control)” value (hBuChE [1]; 1*IC50, diluted) was 52.3 % control and the “hBuChE activity (% control)” value (hBuChE [1]; 1*IC50, undiluted) was 51.4 % control.
In the case of `CCN(C)C(=O)Oc1ccc2ncccc2c1` [Compound 3k, Quinolin-6-yl ethyl(methyl)carbamate], the IC50 (eeAChE) is reported as 10.3 ± 0.58 µM, the inhibition at 25 µM (eqBuChE) is reported as 5.8 ± 0.03% and the “cell viability of BV-2 cells” value (BV-2 cells) is reported as “did not show obvious change”. For the same compound, the “levels of IL-6 compared with model group” value (IL-6) was “significantly decreased”, the “levels of IL-1β compared with model group” value (IL-1β) was “significantly decreased” and the “release volume of NO” value (NO) was “significantly decreased”. The “cytotoxicity on PC12 cells” value (PC12 cells) was “did not show any cytotoxicity” and the “neuroprotective effect on Aβ25-35-induced PC12 cells injury” value [2] was “significant neuroprotective effects at 10 µM”.
`CCN(CC)C(=O)Oc1cccc2cccnc12` [Compound 3n, Quinolin-8-yl diethylcarbamate] was tested, and the IC50 (eeAChE; [4]) was 9.7 ± 0.07 µM, the inhibition at 25 µM (eqBuChE; at 25 μM of compounds) was 2.4 ± 0.01% and the “cell viability of BV-2 cells” value (BV-2 cells) was “did not show obvious change”. The “levels of IL-6 compared with model group” value (IL-6) was “significantly decreased”, the “levels of IL-1β compared with model group” value (IL-1β) was “did not obviously decrease” and the “release volume of NO” value (NO) was “significantly decreased”. The “cytotoxicity on PC12 cells” value (PC12 cells) was “did not show any cytotoxicity” and the “neuroprotective effect on Aβ25-35-induced PC12 cells injury” value [2] was “significant neuroprotective effects at 5 and 10 µM”.
Work on `CCN(CC)C(=O)Oc1ccc2ncccc2c1` [Compound 3j, Quinolin-6-yl diethylcarbamate] yielded an IC50 (eeAChE; [4]) of 12.2 ± 0.19 µM and an inhibition at 25 µM (eqBuChE; at 25 μM of compounds) of 30.7 ± 1.26%.
In the case of `O=C(Oc1cccc2cccnc12)N1CCOCC1` [Compound 3p, Quinolin-8-yl morpholine-4-carboxylate], the IC50 (eeAChE; [4]) is reported as 12.6 ± 0.76 µM and the inhibition at 25 µM (eqBuChE; at 25 μM of compounds) is reported as 10.8 ± 0.07%.
In the case of `CCN(CC)C(=O)Oc1ccnc2ccccc12` [Compound 3b, Quinolin-4-yl diethylcarbamate], the IC50 (eeAChE; [4]) is reported as 12.7 ± 0.13 µM, the IC50 (eqBuChE) is reported as 1.06 µM and 1.1 µM and the “SI = IC50 (AChE)/IC50 (BuChE)” value (eqBuChE) is reported as 11.5. The IC50 (hAChE) was 30.2 ± 0.61 µM, the IC50 (hBuChE [3]; from human serum, read-out: IC50 ± SD hBuChE) was 5.39 µM and 5.4 µM and the “SI = IC50 (AChE)/IC50 (BuChE)” value (hBuChE [3]; hAChE/hBuChE) was 5.6.
`O=C(Oc1cccc2ncccc12)N1CCOCC1` [Compound 3h, Quinolin-5-yl morpholine-4-carboxylate] was tested, and the IC50 (eeAChE; [4]) was 12.9 ± 0.07 µM, the IC50 (eqBuChE) was 1.76 µM and 1.8 µM and the “SI = IC50 (AChE)/IC50 (BuChE)” value (eqBuChE) was 7.2.
For `CN(C)C(=O)Oc1ccc2ncccc2c1` [Compound 3i, Quinolin-6-yl dimethylcarbamate], the IC50 (eeAChE) was 14.1 ± 0.43 µM and the inhibition at 25 µM (eqBuChE) was 13.8 ± 0.61%.
`O=C(Oc1ccc2ncccc2c1)N1CCOCC1` [Compound 3l, Quinolin-6-yl morpholine-4-carboxylate] was tested, and the IC50 (eeAChE; [4]) was 17.6 ± 0.61 µM and the inhibition at 25 µM (eqBuChE; at 25 μM of compounds) was 13.8 ± 0.61%.
